Assay results published in ChEMBL document CHEMBL4834444, “Discovery of novel N-1 substituted pyrazolopyrimidinones as potent, selective PDE2 inhibitors” (Bioorg Med Chem Lett, 2021).
Converted amounts (≈) assume the structure as drawn.

Columns and labels:
[1] = Half life in rat; assay type: ADME; settings: in vivo
[2] = biological target: Phosphodiesterase 4 (Homo sapiens, UniProt P27815+Q08499+Q07343+Q08493); assay: Inhibition of human PDE4; assay type: protein assay
[3] = biological target: Cytochrome P450 2C9 (Homo sapiens, UniProt P11712); assay: Inhibition of CYP2C9 (unknown origin); assay type: ADME
Chain of Cytochrome P450 2C9 (P11712 whole entry): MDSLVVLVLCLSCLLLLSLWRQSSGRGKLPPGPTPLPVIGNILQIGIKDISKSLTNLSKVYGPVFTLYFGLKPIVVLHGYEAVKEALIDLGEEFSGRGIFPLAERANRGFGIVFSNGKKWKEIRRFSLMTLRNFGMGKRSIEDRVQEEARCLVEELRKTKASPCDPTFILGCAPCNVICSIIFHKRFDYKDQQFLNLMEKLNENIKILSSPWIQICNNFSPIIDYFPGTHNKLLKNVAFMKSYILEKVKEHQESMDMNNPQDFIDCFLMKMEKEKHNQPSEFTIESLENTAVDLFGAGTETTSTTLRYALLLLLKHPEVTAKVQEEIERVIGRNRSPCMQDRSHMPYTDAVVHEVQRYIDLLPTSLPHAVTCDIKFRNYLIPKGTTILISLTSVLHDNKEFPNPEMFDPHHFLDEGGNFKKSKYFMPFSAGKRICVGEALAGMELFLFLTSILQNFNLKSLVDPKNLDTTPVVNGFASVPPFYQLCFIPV

[4] = biological target: Phosphodiesterase 7 (Homo sapiens, UniProt Q13946+Q9NP56); assay: Inhibition of human PDE7; assay type: protein assay
[5] = biological target: Dual 3',5'-cyclic-AMP and -GMP phosphodiesterase 11A (Homo sapiens, UniProt Q9HCR9); assay: Inhibition of human PDE11
Chain of Dual 3',5'-cyclic-AMP and -GMP phosphodiesterase 11A (Q9HCR9 whole entry): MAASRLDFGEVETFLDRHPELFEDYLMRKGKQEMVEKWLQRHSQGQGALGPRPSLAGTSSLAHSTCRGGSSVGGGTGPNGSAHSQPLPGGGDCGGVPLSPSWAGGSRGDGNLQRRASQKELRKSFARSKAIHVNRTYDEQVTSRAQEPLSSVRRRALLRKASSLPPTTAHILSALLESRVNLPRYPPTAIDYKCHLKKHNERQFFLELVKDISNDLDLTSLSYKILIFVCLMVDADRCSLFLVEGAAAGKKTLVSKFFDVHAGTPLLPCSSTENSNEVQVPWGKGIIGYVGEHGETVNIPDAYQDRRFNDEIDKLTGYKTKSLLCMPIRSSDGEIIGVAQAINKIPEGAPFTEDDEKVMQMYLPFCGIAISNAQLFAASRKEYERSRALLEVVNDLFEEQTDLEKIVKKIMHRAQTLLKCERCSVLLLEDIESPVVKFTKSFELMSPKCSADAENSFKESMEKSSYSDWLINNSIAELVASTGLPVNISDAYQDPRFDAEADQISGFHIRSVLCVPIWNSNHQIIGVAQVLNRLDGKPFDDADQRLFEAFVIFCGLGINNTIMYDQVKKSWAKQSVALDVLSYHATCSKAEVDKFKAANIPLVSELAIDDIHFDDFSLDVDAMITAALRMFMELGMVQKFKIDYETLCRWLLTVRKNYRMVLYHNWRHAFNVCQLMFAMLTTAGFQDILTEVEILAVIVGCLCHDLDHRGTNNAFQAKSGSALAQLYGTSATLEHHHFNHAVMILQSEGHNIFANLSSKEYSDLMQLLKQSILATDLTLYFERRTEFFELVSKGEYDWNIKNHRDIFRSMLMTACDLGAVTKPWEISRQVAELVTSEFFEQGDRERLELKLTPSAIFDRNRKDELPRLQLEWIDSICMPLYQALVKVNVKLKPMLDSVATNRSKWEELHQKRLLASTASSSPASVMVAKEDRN

[6] = biological target: High affinity cGMP-specific 3',5'-cyclic phosphodiesterase 9A (Homo sapiens, UniProt O76083); assay: Inhibition of human PDE9
Chain of High affinity cGMP-specific 3',5'-cyclic phosphodiesterase 9A (O76083 whole entry): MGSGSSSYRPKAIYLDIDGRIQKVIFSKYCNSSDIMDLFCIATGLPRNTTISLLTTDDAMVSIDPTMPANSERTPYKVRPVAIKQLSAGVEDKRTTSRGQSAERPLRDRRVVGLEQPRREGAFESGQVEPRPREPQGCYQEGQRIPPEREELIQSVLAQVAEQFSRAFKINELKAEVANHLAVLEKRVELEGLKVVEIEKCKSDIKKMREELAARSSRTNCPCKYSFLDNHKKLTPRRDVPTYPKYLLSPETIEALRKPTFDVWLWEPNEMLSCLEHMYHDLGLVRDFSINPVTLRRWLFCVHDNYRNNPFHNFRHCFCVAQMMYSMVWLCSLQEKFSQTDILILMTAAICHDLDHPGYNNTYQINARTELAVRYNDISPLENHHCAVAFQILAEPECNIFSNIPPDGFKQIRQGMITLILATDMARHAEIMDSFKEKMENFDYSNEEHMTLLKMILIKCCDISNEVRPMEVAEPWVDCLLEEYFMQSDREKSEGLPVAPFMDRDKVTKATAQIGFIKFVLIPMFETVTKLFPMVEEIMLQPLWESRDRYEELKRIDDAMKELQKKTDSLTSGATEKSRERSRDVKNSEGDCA

[7] = biological target: cAMP and cAMP-inhibited cGMP 3',5'-cyclic phosphodiesterase 10A (Homo sapiens, UniProt Q9Y233); assay: Inhibition of human PDE10
Chain of cAMP and cAMP-inhibited cGMP 3',5'-cyclic phosphodiesterase 10A (Q9Y233 whole entry): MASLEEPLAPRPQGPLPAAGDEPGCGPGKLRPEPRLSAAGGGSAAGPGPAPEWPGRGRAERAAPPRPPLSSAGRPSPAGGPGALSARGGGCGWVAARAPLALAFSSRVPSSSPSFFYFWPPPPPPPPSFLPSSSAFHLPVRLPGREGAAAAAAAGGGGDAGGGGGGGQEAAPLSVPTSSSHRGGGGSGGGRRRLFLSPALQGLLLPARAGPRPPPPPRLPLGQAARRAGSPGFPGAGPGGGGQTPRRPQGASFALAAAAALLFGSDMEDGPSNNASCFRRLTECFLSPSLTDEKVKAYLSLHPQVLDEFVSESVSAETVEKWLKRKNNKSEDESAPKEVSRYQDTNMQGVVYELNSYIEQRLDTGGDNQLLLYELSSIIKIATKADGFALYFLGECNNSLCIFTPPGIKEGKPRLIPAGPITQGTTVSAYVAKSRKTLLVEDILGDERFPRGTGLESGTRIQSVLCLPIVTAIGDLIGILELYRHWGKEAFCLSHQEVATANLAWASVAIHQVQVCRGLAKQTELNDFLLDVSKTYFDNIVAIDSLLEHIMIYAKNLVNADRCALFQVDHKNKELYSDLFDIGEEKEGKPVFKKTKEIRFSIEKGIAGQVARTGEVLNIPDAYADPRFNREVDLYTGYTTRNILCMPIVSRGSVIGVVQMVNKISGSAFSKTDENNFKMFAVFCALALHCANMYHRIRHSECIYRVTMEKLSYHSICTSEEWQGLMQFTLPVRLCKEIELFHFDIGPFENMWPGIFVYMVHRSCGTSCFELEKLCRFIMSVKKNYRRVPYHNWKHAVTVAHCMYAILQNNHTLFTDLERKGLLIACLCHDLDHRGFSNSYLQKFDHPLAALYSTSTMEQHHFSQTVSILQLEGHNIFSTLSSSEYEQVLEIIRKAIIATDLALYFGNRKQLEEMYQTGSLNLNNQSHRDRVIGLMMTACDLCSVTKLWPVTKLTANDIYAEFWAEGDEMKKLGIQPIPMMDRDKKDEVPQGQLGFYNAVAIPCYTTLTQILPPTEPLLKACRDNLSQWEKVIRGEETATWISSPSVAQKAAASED

[8] = species on record: Homo sapiens; assay: Inhibition of Ion channel (unknown origin)
[9] = Kinetic solubility of compound at pH 2; assay type: physicochemical; settings: buffer, read-out: Kinetic_solubility
[10] = Plasma protein binding in human assessed as unbound fraction; assay type: ADME, cell-free
[11] = Mean residence time in rat; assay type: ADME; settings: in vivo
[12] = Plasma protein binding in rhesus monkey assessed as unbound fraction; assay type: ADME, cell-free, Macaca mulatta
[13] = Plasma protein binding in rat assessed as unbound fraction; assay type: ADME, cell-free
[14] = Inhibition of human PDE3
[15] = biological target: Cytochrome P450 3A4 (Homo sapiens, UniProt P08684); assay: Inhibition of CYP3A4 (unknown origin); assay type: ADME
Chain of Cytochrome P450 3A4 (P08684 whole entry): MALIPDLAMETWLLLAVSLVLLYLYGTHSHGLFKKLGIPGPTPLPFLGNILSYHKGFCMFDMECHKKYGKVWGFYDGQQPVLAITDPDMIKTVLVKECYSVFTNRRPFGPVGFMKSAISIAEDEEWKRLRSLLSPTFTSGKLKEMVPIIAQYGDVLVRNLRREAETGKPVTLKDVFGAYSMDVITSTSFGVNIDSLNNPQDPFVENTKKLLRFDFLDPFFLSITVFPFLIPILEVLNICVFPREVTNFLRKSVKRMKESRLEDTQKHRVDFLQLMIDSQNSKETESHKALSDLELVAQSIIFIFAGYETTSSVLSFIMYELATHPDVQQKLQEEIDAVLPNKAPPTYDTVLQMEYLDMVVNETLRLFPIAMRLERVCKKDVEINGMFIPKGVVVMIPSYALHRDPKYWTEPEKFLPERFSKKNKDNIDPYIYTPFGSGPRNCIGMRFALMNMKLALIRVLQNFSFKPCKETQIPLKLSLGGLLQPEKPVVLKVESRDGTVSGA

[16] = Kinetic solubility of compound in FaSSIF; assay type: physicochemical; settings: read-out: Kinetic_solubility
[17] = biological target: Cytochrome P450 2D6 (Homo sapiens, UniProt P10635); assay: Inhibition of CYP2D6 (unknown origin); assay type: ADME
Chain of Cytochrome P450 2D6 (P10635 whole entry): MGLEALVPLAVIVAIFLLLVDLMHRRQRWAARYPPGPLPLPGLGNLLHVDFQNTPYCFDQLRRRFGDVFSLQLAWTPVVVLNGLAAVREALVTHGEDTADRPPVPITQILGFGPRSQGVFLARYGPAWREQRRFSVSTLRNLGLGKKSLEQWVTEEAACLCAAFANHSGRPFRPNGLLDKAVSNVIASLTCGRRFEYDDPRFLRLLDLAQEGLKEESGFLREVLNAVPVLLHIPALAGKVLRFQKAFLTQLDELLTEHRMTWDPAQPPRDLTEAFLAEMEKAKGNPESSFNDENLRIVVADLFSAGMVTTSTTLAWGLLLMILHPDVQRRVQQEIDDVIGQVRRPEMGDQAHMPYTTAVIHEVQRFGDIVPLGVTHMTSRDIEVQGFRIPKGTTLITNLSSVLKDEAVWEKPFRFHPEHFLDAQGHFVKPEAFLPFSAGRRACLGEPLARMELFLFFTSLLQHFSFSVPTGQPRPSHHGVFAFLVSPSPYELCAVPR

[18] = biological target: cGMP-specific 3',5'-cyclic phosphodiesterase (Homo sapiens, UniProt O76074); assay: Inhibition of human PDE5
[19] = biological target: Phosphodiesterase 6; assay: Inhibition of human PDE6; assay type: protein assay
[20] = Plasma clearance in rat; assay type: ADME
[21] = Kinetic solubility of compound at pH 7; assay type: physicochemical; settings: buffer, read-out: Kinetic_solubility
[22] = Inhibition of human PDE1
[23] = biological target: T1, PXR (nuclear receptor subfamily 1 group I member 2) (Homo sapiens, UniProt O75469); assay: Inhibition of human PXR at 10 uM
T1 sequence (O75469 whole entry): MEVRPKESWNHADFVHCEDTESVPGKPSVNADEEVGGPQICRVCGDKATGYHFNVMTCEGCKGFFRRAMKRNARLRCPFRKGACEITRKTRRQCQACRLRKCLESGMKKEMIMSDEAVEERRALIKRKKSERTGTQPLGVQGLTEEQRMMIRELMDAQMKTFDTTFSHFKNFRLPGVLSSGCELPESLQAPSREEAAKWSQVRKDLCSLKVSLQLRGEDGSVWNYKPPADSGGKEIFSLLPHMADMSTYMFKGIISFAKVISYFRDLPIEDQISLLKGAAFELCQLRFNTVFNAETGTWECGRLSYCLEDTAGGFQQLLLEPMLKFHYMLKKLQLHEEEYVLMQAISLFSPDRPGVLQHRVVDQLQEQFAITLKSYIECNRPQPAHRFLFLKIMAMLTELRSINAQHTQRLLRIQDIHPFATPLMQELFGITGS

[24] = Inhibition of human PDE8

SMILES | half-life [1] [h] | IC50 [2] [µM] | INH [3] [µM] | IC50 [4] [µM] | IC50 [5] [µM] | IC50 [6] [µM] | IC50 [7] [µM] | INH [8] [µM] | solubility kinetic [9] [µM] | fraction unbound [10] | MRT [11] [h] | fraction unbound [12] | fraction unbound [13] | IC50 [14] [µM] | INH [15] [µM] | solubility kinetic [16] [µM] | INH [17] [µM] | IC50 [18] [µM] | IC50 [19] [µM] | clearance [20] [mL/min/kg] | other results
Cc1nc2c([C@H](C)c3ccc(C(F)(F)F)c(F)c3)nn(CCO)c2c(=O)[nH]1 | 3.1 | 3.5 | > 50 | > 75 | 6.2 | > 50 | 18 | 9.6 | 117 (≈ 45 µg/mL) | 0.03 | 2.5 | 0.035 | 0.049 | 1.8 | 44 | 148 (≈ 56.9 µg/mL) | > 50 | 23 | 27 | 24 | solubility kinetic [21]: 115 µM (≈ 44.2 µg/mL); IC50 [22]: > 60 µM; inhibition at 10 µM [23]: 16%; IC50 [24]: > 50 µM
Cc1nc2c([C@H](C)c3ccc(C(C)(C)C)cc3)nn(CCF)c2c(=O)[nH]1 | 1.4 | 3.3 | > 50 | > 75 | 0.6 | > 50 | 5.8 | 17 | 60 (≈ 21.4 µg/mL) | 0.009 | 0.8 | 0.016 | 0.014 | 5.7 | > 50 | 177 (≈ 63.1 µg/mL) | > 50 | 21 | 11 | 49 | solubility kinetic [21]: 20 µM (≈ 7.13 µg/mL); IC50 [22]: > 60 µM; inhibition at 10 µM [23]: 45%; IC50 [24]: > 50 µM
